# Where a name gives a salt, the structure may show the parent alone.
# What was measured:
# [1] = Oral pharmacokinetics in the dog; type: in vivo
# Excerpt: (§1) There is a marked food effect with absorption reduced by >50% in dogs after a meal.
# [2] = system: AVP-induced platelet aggregation (V1A antagonist activity); test: AVP-induced platelet aggregation in Phase 1 subjects; type: in vivo, human; settings: subjects at 20 mg/day orally or 2.5 mg IV
# dogs = settings: dog, in vivo, 2 mg/kg
# female rats = settings: 13-week oral study, all doses
# bone marrow of rats = test: Clastogenicity in bone marrow of rats; type: in vivo
# human lymphocytes = test: Clastogenicity in human lymphocytes in vitro; type: cell-based
# [3] = Oral pharmacokinetics in the rat; type: in vivo
# Excerpt: as §1
# [4] = system: aquaretic action (V2 receptor antagonism); test: Aquaretic action in normal subjects (V2 receptor antagonism); type: in vivo, human
# [5] = system: AVP-induced pressor response (V1A antagonism); test: Antagonism of AVP-induced pressor response in dogs (IV); type: in vivo
# [6] = Pharmacokinetics in healthy subjects (Phase 1)
# healthy subjects = test: Safety in Phase 1 subjects; type: in vivo, human
# Excerpt: These observations were considered related to antagonism of V2 receptors and not a safety concern. Vital signs (blood pressure and heart rate) were unaffected by YM087.
# rabbits = test: Teratogenicity in rabbits; type: in vivo
# [7] = system: dogs with heart failure induced by rapid right ventricular pacing; test: Heart failure induced by rapid right ventricular pacing in dogs; type: in vivo; settings: IV 0.1 mg/kg
# [8] = system: AVP-induced dermal vasoconstriction; test: AVP-induced dermal vasoconstriction in Phase 1 subjects; type: in vivo, human; settings: subjects at 50 mg IV
# [9] = system: urinary output (V2 antagonism); test: Urinary output and osmolality in conscious dogs (V2 antagonism); type: in vivo
# rats [10] = test: Teratogenicity in rats; type: in vivo
# rats [11] = settings: rat, in vivo, 2.5 mg/kg
# rats [12] = test: Reproductive performance and fertility studies in rats; type: in vivo
# bone marrow in dogs = test: 2- and 13-week oral toxicity studies in dogs; type: in vivo
# bacteria = test: Mutagenicity in bacteria; type: cell-based
# [13] = system: AVP-induced pressor response (V1A antagonism); test: Antagonism of AVP-induced pressor response in rats (oral); type: in vivo; settings: given orally to rats
# [14] = oral 20 mg, single dose combination
structure (smiles),measurement,setting,value
"Cc1nc2c([nH]1)-c1ccccc1N(C(=O)c1ccc(NC(=O)c3ccccc3-c3ccccc3)cc1)CC2 [YM087, N-[4-(2-methyl-4,5,6-tetrahydromidazo [4,5-d][1]benzazepin-6-ylcarbonyl)phenyl]biphenyl-2-carboxamide hydrochloride]",half-life,"[1]; in vivo, dogs, read-out: elimination half-life (converted)",2 h
same,time to peak concentrations,[1]; oral,1 h
same,AVP-induced platelet aggregation,[2],Inhibition of AVP-induced platelet aggregation
same,toxicity in 4-week IV study,dogs,No toxicity was observed
same,uterine weights,female rats,decreased at all doses
same,clastogenicity,bone marrow of rats,not clastogenic
same,clastogenicity,human lymphocytes,not clastogenic
same,half-life,"[3]; in vivo, rats, read-out: elimination half-life (converted)",1 h
same,time to peak concentrations,[3]; oral,0.5 h
same,tolerability of aquaretic effects,"[4]; 120 mg QD or 60 mg BID orally or 50 mg IV, normal subjects",too uncomfortable in normal subjects to be tolerable
same,duration of increased urine production rate postdosing,[4]; IV 50 mg/day,≤ 6 h
same,duration of increased urine production rate postdosing,[4]; IV doses up to 250 μg/kg,up to 3 hours
same,dose at which aquaretic action with decrease in urine osmolarity starts,"[4]; IV, normal subjects",0.05 mg/kg
same,dose at which aquaretic action with decrease in urine osmolarity starts,"[4]; oral, normal subjects",15 mg
same,ID50 (dose that reduced the AVP response by 50%),[5],0.026 mg/kg
same,half-life,"[6]; human, plasma",4 to 5 h
same,bioavailability,"[6]; human, plasma, oral",43 to 59%
same,Tmax,"[6]; human, plasma, po",~1 h
same,bioavailability,"[6]; human, plasma, po, 60 mg",44%
same,effect of 0.5 mg IV digoxin on pharmacokinetics,[6]; [14],not affected
same,effect of 25 mg oral captopril on pharmacokinetics,[6]; [14],not affected
same,plasma levels after the second dose,"[6]; repeated BID oral doses, 60 mg",unexpectedly high plasma levels
same,overall safety,healthy subjects; approximately 250 subjects treated,no major safety concerns were identified
same,urinary and plasma osmolarity at higher doses,"healthy subjects; higher doses, related to V2 antagonism",urinary osmolarity decreased and plasma osmolarity increased
same,biochemical or hematological laboratory parameters,"healthy subjects; human, in vivo",No drug-related trend was observed
same,other adverse events,"healthy subjects; human, in vivo","flushes, a sensation of cold extremities, abdominal complaints, abnormal stools, syncope, dizziness, palpitations, and postural hypotension"
same,vital signs (blood pressure and heart rate),"healthy subjects; human, in vivo",unaffected
same,serious event in patient with severe congestive heart failure,"healthy subjects; one patient, 80 mg/day for 4 days",generalized tonic clonic seizure
same,number of subjects with minor reversible decreases in white blood cell count,healthy subjects; one subject on placebo also affected,Three
same,most frequent adverse events,healthy subjects; regardless of treatment association,mild or moderate thirst and mild headache
same,teratogenicity,rabbits,not teratogenic
same,cardiac function,[7],significantly improved the depressed cardiac function
same,water diuresis,[7],produced a water diuresis
same,AVP-induced dermal vasoconstriction,[8],Total inhibition
same,urinary output,"[9]; conscious dogs, oral 0.03 to 0.3 mg/kg, dose-related",increased urinary output
same,urinary osmolality,"[9]; conscious dogs, oral 0.03 to 0.3 mg/kg, reduced from 1500",< 100 mOsm/kg H2O
same,effect on urinary sodium (Na) or potassium (K) excretion,[9]; unlike furosemide,little or no effect
same,teratogenicity,rats [10],not teratogenic
same,toxicity in 4-week IV study,rats [11],No toxicity was observed
same,female fertility findings,rats [12]; females given 100 mg/kg orally for 2 weeks prior to mating with untreated males,"reduced fertility index, increased implantation loss, and decreased live fetuses"
same,reproductive performance of male rats,rats [12]; male rats,did not affect
same,peripheral blood counts,"bone marrow in dogs; affected dogs, 13-week oral study","Decreased peripheral erythrocyte, leukocyte, and/or platelet counts"
same,reversibility of bone marrow and peripheral blood changes,bone marrow in dogs; dogs,reversible
same,mutagenicity,bacteria,not mutagenic
same,ID50 (dose that reduced the AVP response by 50%),[13],0.32 mg/kg

# — US6645959B1, “Method for treating postoperative ileus” (Warner-Lambert Company, priority 2000, dated 2003)
